Measurements reported in patent US20230149448A1, “METHODS FOR PREVENTING AND TREATING R[…] MODIFICATION OF VIRUS RECEPTOR BINDING DOMAINS USING […]” (priority 2021, published 2023).

What was measured:
human subjects = experiment: Safety of microaerosolized HOCl inhalation in human volunteers; assay type: in vivo; conditions: dense microaerosols for 2-5 minutes, 400 episodes
Protocol: The safety of exposure of human subjects to microaerosolized pure stable HOCl of the present disclosure via the respiratory route was evaluated.
Human volunteers were exposed to dense microaerosols of HOCl for periods of 2-5 minutes and submitted subjective reports of the outcomes of these experiences. Data on a total of 400 such episodes were collected under medical supervision.

SARS-CoV-2 [1] = assay type: cell-based
SARS-CoV-2 [2] = assay type: cell-based; remark: listed apart in the source
[3] = molecular target: receptor binding domain (RBD) of Spike S protein (Severe acute respiratory syndrome coronavirus 2, UniProt P0DTC2); experiment: Exposure of Spike protein, capture/detection by RBD-specific antibodies (96 well, HRP); parameters: species or system SARS-CoV-2; conditions: 150 ppm, 5 minutes exposure

Structure (SMILES)	serious adverse effects (human subjects)	minor complaints (nose irritation, slight impact on ease of deep breathing) (human subjects; disappeared upon cessation of exposure)	average reductions in infectivity (SARS-CoV-2 [1]) [%]	average reduction in titer (SARS-CoV-2 [2]) [%]	inhibition of chromophore formation (S protein remaining bound by RBD specific antibodies) [3]	average reductions in infectivity (positive control) (SARS-CoV-2 [1]) [%]
OCl [HOCl, hypochlorous acid]	No serious adverse effects	approximately 3%	99.92	99.96	complete inhibition	–
CCO [45% ethanol, ethanol, reference compound]	–	–	–	–	–	99.98
OBr [HOBr, hypobromous acid]	–	–	–	–	complete inhibition	–
